Data: patent US20250101025A1, “NOVEL PLK1 DEGRADATION INDUCING COMPOUND” (UPPTHERA, INC., priority 2021, published 2025)
pIC50: −log10 of the molar value. Read-outs that look alike come from different tables or passages of the source.

Columns and labels:
Assay type in all cases: cell-based
H526 cell line = assay: Cell viability assay for NCI-H526 cell line (EZ-Cytox); conditions: Homo sapiens, NCI-H526, 120 h; H526 cells, 3-fold dilutions 3000 nM to 0.46 nM, 5 days
Protocol: (1) Culture of NCI-H526 Cell Line
(2) Treatment of Compounds of the Present Invention and Method of Cell Viability Assay
After treating the compound to each well to make the total volume of 200 μL, it was cultured in a CO2 incubator (Thermo Fisher Science, Cat. No. 4111) for 5 days.
The absorbance of the completely cultured sample was measured by setting the wavelength of a plate reader (BMG Labtech, CLARIOstar Plus) to […], and was measured after shaking for 3 minutes in a plate reader before measurement.
In Table 3, Activity represents IC50 value of each Exemplary Compound treatment group to H526 cell line (A: <30 nM, B: <50 nM, C: <100 nM, D: <200 nM, E: <400 nM).

PLK1 = target: T1, PLK1 (Homo sapiens, UniProt P53350); assay: Luciferase assay for PLK1 in HeLa LgBit (Plk1-HiBit KI) cell line; conditions: compound 300 nM, luminescence after 9 hours
T1 construct: endogenous in cells; host or cells: HeLa LgBit (Plk1-HiBit KI): HeLa stably expressing LgBit, with HiBit knocked in at the endogenous Plk1 locus by CRISPR/Cas9
T1 sequence (P53350 whole entry): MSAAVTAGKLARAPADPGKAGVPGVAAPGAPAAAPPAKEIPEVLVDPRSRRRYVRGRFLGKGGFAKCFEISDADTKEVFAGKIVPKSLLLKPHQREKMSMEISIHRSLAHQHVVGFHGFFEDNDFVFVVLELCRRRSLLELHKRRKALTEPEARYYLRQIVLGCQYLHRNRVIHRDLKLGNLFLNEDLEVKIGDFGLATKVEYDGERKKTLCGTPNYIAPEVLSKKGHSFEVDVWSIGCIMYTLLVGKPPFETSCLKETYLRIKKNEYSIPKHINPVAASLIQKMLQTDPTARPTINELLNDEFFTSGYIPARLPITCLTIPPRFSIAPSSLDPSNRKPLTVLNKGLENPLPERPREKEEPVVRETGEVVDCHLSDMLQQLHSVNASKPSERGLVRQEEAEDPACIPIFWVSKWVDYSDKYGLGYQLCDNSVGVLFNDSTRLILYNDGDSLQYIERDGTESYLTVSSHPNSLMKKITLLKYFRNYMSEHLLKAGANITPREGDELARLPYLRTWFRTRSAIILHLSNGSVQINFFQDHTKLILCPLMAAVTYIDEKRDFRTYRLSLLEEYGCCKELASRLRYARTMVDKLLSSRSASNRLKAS
Protocol: 2. Luciferase Assay for PLK1
(1) Preparation and Culture of HeLa LgBit (Plk1-HiBit KI) Cell Line
A HeLa cell line in which the LgBit vector was transfected and expressed stably was prepared. Then, after constructing gRNA and donor to express the HiBit amino acid sequence behind the C-terminal of the Plk1 gene, which was inherent in the cell, it was inserted into the cell together with a vector capable of expressing CRISPR/Cas9. Only the cells in which the insertion was completed and knock-in had progressed were selected, sub-cultured and used.
(2) Treatment of Compounds of the Present Invention and Method of Luciferase Assay
In the case of HeLa LgBit (Plk1-HiBit KI), the compounds were treated after being released after thymidine block, and the process was as follows. Thymidine (Sigma-Aldrich Cat. No. T9250-5G) was completely dissolved in DW and used in the experiment. For thymidine block, the products were treated with 2 mM of thymidine and then incubated for 24 hours. For release and chemical treatment, the medium was suctioned and washed with 1×PBS. TrypLE™ was added and incubated in 37° C. CO2 incubator for 5 min. Cells neutralized by adding complete media were counted through a counter. For each well of a 96-well culture plate (SPL), 3.3×10^4 cells and a total medium volume of 150 μL were seeded and incubated in a CO2 incubator.
Each cell line was incubated in a CO2 incubator for 18 hours, and Endurazine was added to each well to make up 4% of the total volume. After adding the compound of the present invention in a 96-well white plate (SPL) to a concentration of 300 nM, the wavelength of the plate reader (BMG Labtech, CLARIOstar Plus) was set to […], and then the luminescence was tracked in real time.
In Table 2, Activity represents the ratio of the luminescence value of each Exemplary Compound treatment group to DMSO treatment group (+++: <0.3, ++<0.6, +<0.7).

MRC-5 cell line = assay: Cell viability assay for MRC-5 cell line (EZ-Cytox cytotoxicity experiment); conditions: Homo sapiens, MRC5, 120 h, MRC-5 normal cell line, 5 days; for IC50: 3-fold dilutions 10000 nM to 1.52 nM, Exemplary Compounds, numeric values, read-out: Activity: IC50 value (nM) to MRC-5 cell line; for pIC50: highest concentration 10000 nM, N.D. = no cytotoxicity until 10 μM, read-out: Activity: IC50 value to MRC-5 cell line, N.D. cells
Protocol: 4. Cell Viability Assay for MRC-5 Cell Line
(1) Culture of MRC-5 Cell Line
Passage of cultured cells was maintained within P15.
(2) Treatment of Compounds of the Present Invention
Then, it was cultured in 37° C.
(3) Cytotoxicity Experiment
CO2 incubator for 4 hours.

| Activity: ratio of the luminescence value of each Exemplary Compound treatment group to DMSO treatment group (PLK1) | SMILES | pIC50 (H526 cell line) | IC50 (MRC-5 cell line) [nM] | pIC50 (MRC-5 cell line) |
| --- | --- | --- | --- | --- |
| ++ (++<0.6) | COc1cc(C(=O)NN2CCC(N3CC4(CCN(c5ccc(NC6CCC(=O)NC6=O)cc5F)CC4)C3)CC2)ccc1Nc1ncc2c(n1)N(C(C)C)CC(F)(F)C(=O)N2C (stereo not drawn) [Compound 32, 4-((7,7-difluoro-9-isopropyl-5-methyl-6-oxo-6,7,8,9-tetrahydro-5H-pyrimido[4,5-b][1,4]diazepin-2-yl)amino)-N-(4-(7-(4-((2,6-dioxopiperidin-3-yl)amino)-2-fluorophenyl)-2,7-diazaspiro[3.5]nonan-2-yl)piperidin-1-yl)-3-methoxybenzamide] | > 7.30 |  | < 5.00 |
| ++ (++<0.6) | COc1cc(C(=O)NN2CCC(N3CC4(CCN(c5ccc(N(C)C6CCC(=O)NC6=O)cc5F)CC4)C3)CC2)ccc1Nc1ncc2c(n1)N(C(C)C)CC(F)(F)C(=O)N2C (stereo not drawn) [Compound 33, 4-((7,7-difluoro-9-isopropyl-5-methyl-6-oxo-6,7,8,9-tetrahydro-5H-pyrimido[4,5-b][1,4]diazepin-2-yl)amino)-N-(4-(7-(4-((2,6-dioxopiperidin-3-yl)(methyl)amino)-2-fluorophenyl)-2,7-diazaspiro[3.5]nonan-2-yl)piperidin-1-yl)-3-methoxybenzamide] | > 7.30 | 25000 |  |
| +++ (+++: <0.3) | COc1cc(C(=O)NC2CCC(N(C)CC3CCN(c4ccc(NC5CCC(=O)NC5=O)cc4F)CC3)CC2)ccc1Nc1ncc2c(n1)N(C1CCCC1)CC(F)(F)C(=O)N2C (stereo not drawn) [Compound 34, 4-((9-cyclopentyl-7,7-difluoro-5-methyl-6-oxo-6,7,8,9-tetrahydro-5H-pyrimido[4,5-b][1,4]diazepin-2-yl)amino)-N-((1r,4r)-4-(((1-(4-((2,6-dioxopiperidin-3-yl)amino)-2-fluorophenyl)piperidin-4-yl)methyl)(methyl)amino)cyclohexyl)-3-methoxybenzamide] | > 7.52 |  | < 5.00 |
| +++ (+++: <0.3) | COc1cc(C(=O)NC2CC3(CCN(CC4CCN(c5ccc(OC6CCC(=O)NC6=O)cc5F)CC4)CC3)C2)ccc1Nc1ncc2c(n1)N(C(C)C)CC(F)(F)C(=O)N2C (stereo not drawn) [Compound 35, 4-((7,7-difluoro-9-isopropyl-5-methyl-6-oxo-6,7,8,9-tetrahydro-5H-pyrimido[4,5-b][1,4]diazepin-2-yl)amino)-N-(7-((1-(4-((2,6-dioxopiperidin-3-yl)oxy)-2-fluorophenyl)piperidin-4-yl)methyl)-7-azaspiro[3.5]nonan-2-yl)-3-methoxybenzamide] | > 7.30 | 16900 |  |
| +++ (+++: <0.3) | COc1cc(C(=O)NC2CC3(CCN(CC4CCN(c5ccc(OC6CCC(=O)NC6=O)cc5)CC4)CC3)C2)ccc1Nc1ncc2c(n1)N(C(C)C)CC(F)(F)C(=O)N2C (stereo not drawn) [Compound 36, 4-((7,7-difluoro-9-isopropyl-5-methyl-6-oxo-6,7,8,9-tetrahydro-5H-pyrimido[4,5-b][1,4]diazepin-2-yl)amino)-N-(7-((1-(4-((2,6-dioxopiperidin-3-yl)oxy)phenyl)piperidin-4-yl)methyl)-7-azaspiro[3.5]nonan-2-yl)-3-methoxybenzamide] | > 7.52 | 9800 |  |
| ++ (++<0.6) | COc1cc(C(=O)NC2CCN(CCC3CCN(c4cccc5c4n(C)c(=O)n5C4CCC(=O)NC4=O)CC3)CC2)ccc1Nc1ncc2c(n1)N(C1CCCC1)CC(F)(F)C(=O)N2C (stereo not drawn) [Compound 37, 4-((9-cyclopentyl-7,7-difluoro-5-methyl-6-oxo-6,7,8,9-tetrahydro-5H-pyrimido[4,5-b][1,4]diazepin-2-yl)amino)-N-(1-(2-(1-(1-(2,6-dioxopiperidin-3-yl)-3-methyl-2-oxo-2,3-dihydro-1H-benzo[d]imidazol-4-yl)piperidin-4-yl)ethyl)piperidin-4-yl)-3-methoxybenzamide] | > 7.30 |  | < 5.00 |

The next lines start with the molecule.

| SMILES | Activity: ratio of the luminescence value of each Exemplary Compound treatment group to DMSO treatment group (PLK1) | pIC50 (H526 cell line) | IC50 (MRC-5 cell line) [nM] | pIC50 (MRC-5 cell line) |
| --- | --- | --- | --- | --- |
| COc1cc(C(=O)NC2CC3(CCN(CC4CCN(c5c(F)cc(NC6CCC(=O)NC6=O)cc5F)CC4)CC3)C2)ccc1Nc1ncc2c(n1)N(C(C)C)CC(F)(F)C(=O)N2C (stereo not drawn) [Compound 25, 4-((7,7-difluoro-9-isopropyl-5-methyl-6-oxo-6,7,8,9-tetrahydro-5H-pyrimido[4,5-b][1,4]diazepin-2-yl)amino)-N-(7-((1-(4-((2,6-dioxopiperidin-3-yl)amino)-2,6-difluorophenyl)piperidin-4-yl)methyl)-7-azaspiro[3.5]nonan-2-yl)-3-methoxybenz amide] | +++ (+++: <0.3) | > 7.52 | 9240 |  |
| COc1cc(C(=O)NC2CC3(CCN(CC4CCN(c5ccc(N(C)C6CCC(=O)NC6=O)cc5F)CC4)CC3)C2)ccc1Nc1ncc2c(n1)N(C(C)C)CC(F)(F)C(=O)N2C (stereo not drawn) [Compound 26, 4-((7,7-difluoro-9-isopropyl-5-methyl-6-oxo-6,7,8,9-tetrahydro-5H-pyrimido[4,5-b][1,4]diazepin-2-yl)amino)-N-(7-((1-(4-((2,6-dioxopiperidin-3-yl)(methyl)amino)-2-fluorophenyl)piperidin-4-yl)methyl)-7-azaspiro[3.5]nonan-2-yl)-3-methoxybenzamide] | +++ (+++: <0.3) | > 7.30 | 6550 |  |
| COc1cc(C(=O)NC2CC3(CCN(CC4CCN(c5ccc(NC6CCC(=O)NC6=O)cc5)CC4)CC3)C2)ccc1Nc1ncc2c(n1)N(C(C)C)CC(F)(F)C(=O)N2C (stereo not drawn) [Compound 28, 4-((7,7-difluoro-9-isopropyl-5-methyl-6-oxo-6,7,8,9-tetrahydro-5H-pyrimido[4,5-b][1,4]diazepin-2-yl)amino)-N-(7-((1-(4-((2,6-dioxopiperidin-3-yl)amino)phenyl)piperidin-4-yl)methyl)-7-azaspiro[3.5]nonan-2-yl)-3-methoxybenzamide] | ++ (++<0.6) | > 7.52 | 10200 |  |
| COc1cc(C(=O)NC2CC3(CCN(CC4CCN(c5c(F)cc(N(C)C6CCC(=O)NC6=O)cc5F)CC4)CC3)C2)ccc1Nc1ncc2c(n1)N(C(C)C)CC(F)(F)C(=O)N2C (stereo not drawn) [Compound 29, 4-((7,7-difluoro-9-isopropyl-5-methyl-6-oxo-6,7,8,9-tetrahydro-5H-pyrimido[4,5-b][1,4]diazepin-2-yl)amino)-N-(7-((1-(4-((2,6-dioxopiperidin-3-yl)(methyl)amino)-2,6-difluorophenyl)piperidin-4-yl)methyl)-7-azaspiro[3.5]nonan-2-yl)-3-methoxybenzamide] | ++ (++<0.6) | > 7.30 | 18500 |  |
| COc1cc(C(=O)NCC2CC3(CCN(CC4CCN(c5c(F)cc(NC6CCC(=O)NC6=O)cc5F)CC4)CC3)C2)ccc1Nc1ncc2c(n1)N(C(C)C)CC(F)(F)C(=O)N2C (stereo not drawn) [Compound 30, 4-((7,7-difluoro-9-isopropyl-5-methyl-6-oxo-6,7,8,9-tetrahydro-5H-pyrimido[4,5-b][1,4]diazepin-2-yl)amino)-N-((7-((1-(4-((2,6-dioxopiperidin-3-yl)amino)-2,6-difluorophenyl)piperidin-4-yl)methyl)-7-azaspiro[3.5]nonan-2-yl)methyl)-3-methoxybenzamide] | +++ (+++: <0.3) | > 7.52 | 7870 |  |
